In patent US20260125649A1, “MEDIUM COMPOSITION AND METHOD FOR CULTURING MESENCHYMAL STEM CELLS” (ACADEMIA SINICA, priority 2018, published 2026):

Columns and labels:
Assay type in all cases: cell-based, human
[1] = test system: STAT3 (Tyr705); assay: STAT3 phosphorylation by Western blotting
Protocol: After treatment, the protein levels of total STAT3 and phospho-STAT3 (Tyr705) were examined by Western blotting. […] Cell cycle progression was investigated by flow cytometry with PI staining. Fraction of cells in each phase (G1, S, G2/M) of the cell cycle was evaluated. Cells expressing STAT3 shRNA were treated with EpEX for 18 h, after which cell cycle progression was investigated by flow cytometry with PI staining. Fraction of cells in each phase (G1, S, G2/M) of the cell cycle was evaluated. […] The protein levels of cell cycle regulators (cyclin D1, cyclin D2, cyclin E1, CDK4 and CDK9) and pluripotency factors (Oct4, Sox2, c-Myc, Lin28) were examined by Western blotting. MSCs expressing STAT3 shRNA or shLuc were stimulated with EpEX. After treatment, the protein levels of cell cycle regulators (cyclin D1, cyclin D2, cyclin E1, CDK4 and CDK9) and pluripotency factors (Oct4, Sox2, c-Myc, and Lin 28) were examined by Western blotting. […] After treatment, the gene expression of pluripotency factors (Oct4, Sox2, c-Myc, Lin28 and EpCAM) was examined by qPCR.
FIG. 8. EpEX and EGF induce the phosphorylation of EGFR and STAT3. […] The phosphorylation of EGFR (Tyr845) and STAT3 (Tyr705) were examined by Western blotting with specific antibodies.
Western blotting was performed as previously described (Takahashi et al., 2003). […]

[2] = test system: TACE (Ser435), PS2 (Ser327), ERK1/2; assay: Western blotting of phosphorylation of TACE, Presenilin 2 and ERK1/2; conditions: addition of EGFR inhibitor
Protocol: FIG. 9. EpEX induces the phosphorylation and activity of TACE and γ-secretase. MSCs were stimulated by EpEX for the indicated times, and the activity of TACE and γ-secretase were detected. MSCs were stimulated by EpEX (3 μg/mL) for the indicated times. Western blot analysis was performed to detect the phosphorylation of TACE and Presenilin 2.
FIG. 10. EpEX and EGF induce the phosphorylation of TACE, ERK1/2 and PS2. MSCs were treated with either EGF, EpEX, or co-treated with EGF and EpEX for 5 min. The phosphorylation of ERK1/2 was examined by Western blotting with specific antibodies. […] The phosphorylation of ERK1/2, TACE (Ser435), PS2 (Ser327) were examined by Western blotting with specific antibodies.
Western blotting was performed as previously described (Takahashi et al., 2003). Cells were lysed in lysis buffer (150 mM NaCl, 50 mM Tris-HCl (pH 7.4), 1% Nonidet P-40), containing a protease inhibitor mix (Roche Applied Science). Nuclear fractions and cytoplasmic fractions were separated by the Nuclear/Cytosol Fractionation Kit according to the manufacturer's instructions (BioVision Inc., Milpitas, CA, USA). Protein samples were separated by SDS-PAGE under denaturing conditions, and transferred to a PVDF membrane (Millipore). […]

[3] = test system: MSCs; assay: Cell cycle progression by flow cytometry with PI staining; conditions: inhibitor pretreatment (AG1478 25 μM, 30 min; WP1066 5 μM), then EpEX 18 h
Protocol: Phospho-EGFR (Tyr845) was detected by Western blotting. […] After treatment, cell cycle progression was investigated by flow cytometry with PI staining. Fraction of cells in each phase (G1, S, G2/M) of the cell cycle was evaluated. Cells that expressed EGFR shRNA or shLuc were treated with EpEX for 18 h. After treatment, cell cycle progression was investigated by flow cytometry with PI staining. Fraction of cells in each phase (G1, S, G2/M) of the cell cycle was evaluated. […] The protein expression of cell cycle regulators (cyclin D1, cyclin D2, cyclin E1) and pluripotency factors (Oct4, Sox2, c-Myc, Lin28) was examined by Western blotting. MSCs expressing EGFR shRNA were stimulated by EpEX. After treatment, the protein expression of cell cycle regulators (cyclin D1, cyclin E1, CDK4 and CDK9) and pluripotency factors (Oct4, in Sox2, c-Myc, and Lin 28) was examined by Western blotting. […] After treatment, the gene expression of pluripotency factors (Oct4, Sox2, c-Myc, Lin28 and EpCAM) was examined by qPCR.
After treatment, the protein levels of total STAT3 and phospho-STAT3 (Tyr705) were examined by Western blotting. […] Cell cycle progression was investigated by flow cytometry with PI staining. Fraction of cells in each phase (G1, S, G2/M) of the cell cycle was evaluated. […] Fraction of cells in each phase (G1, S, G2/M) of the cell cycle was evaluated. […]

[4] = test system: cyclin A2, cyclin D1, cyclin D2, cyclin D3, cyclin E1, CDK4, CDK9, Oct4, Sox2, c-Myc, Lin28; assay: Western blotting of cell cycle regulators and pluripotency factors in MSCs; conditions: pretreatment, then EpEX
Protocol: The proliferation of MSCs was examined by measuring doubling time. MSCs were treated with EpEX (3 μg/mL) for 24 and 48 h. Cell number was counted and then doubling time was calculated. MSCs were treated with EpEX (3 μg/mL) for the indicated times. After treatment, protein expression of cell cycle regulators (cyclin D1, cyclin D2, cyclin D3, cyclin E1, CDK4 and CDK9) and pluripotency factors (Oct4, Sox2, c-Myc, and Lin28) was examined by Western blotting.
Phospho-EGFR (Tyr845) was detected by Western blotting. […] After treatment, cell cycle progression was investigated by flow cytometry with PI staining. Fraction of cells in each phase (G1, S, G2/M) of the cell cycle was evaluated. Cells that expressed EGFR shRNA or shLuc were treated with EpEX for 18 h. After treatment, cell cycle progression was investigated by flow cytometry with PI staining. Fraction of cells in each phase (G1, S, G2/M) of the cell cycle was evaluated. […]
After treatment, the protein levels of total STAT3 and phospho-STAT3 (Tyr705) were examined by Western blotting. […] Fraction of cells in each phase (G1, S, G2/M) of the cell cycle was evaluated. […] Fraction of cells in each phase (G1, S, G2/M) of the cell cycle was evaluated. […]
The expression of let-7 was detected by qPCR. […] The expression of let-7 was detected by qPCR. […]

COc1cc2ncnc(Nc3cccc(Cl)c3)c2cc1OC [AG1478, reference compound]
effect on activation of STAT3 by either EGF or EpEX ([1]; pretreatment with AG1478): can attenuate
effect on EpEX-induced phosphorylation of TACE [2]: can be abolished
effect on EpEX-induced phosphorylation of presenilin-2 [2]: can be abolished
effect on EpEX-induced cell cycle progression [3]: attenuated
effect on EpEX-induced protein expression of cell cycle regulators and pluripotency markers [4]: abolished

C[C@H](NC(=O)/C(C#N)=C/c1cccc(Br)n1)c1ccccc1 [WP1066, reference compound]
effect on EpEX-induced cell cycle progression [3]: attenuated
effect on EpEX-induced protein expression of cell cycle regulators and pluripotency markers [4]: blocked

EGF: cognate ligand for EGFR
STAT3 phosphorylation ([1]; MSCs treated with the substance): can induce
